Test results published in patent US12473296B2, “Perk inhibiting compounds” (HiberCell, Inc., priority 2019, dated 2025).

Target: PERK (Homo sapiens (Human), UniProt Q9NZJ5)
Assay: PERK cellular assay (TR-FRET, HEK293-EGFP-eIF2α cells, tunicamycin-induced ER stress)
Assay type: cell-based
Settings: tunicamycin 2 hours, read-out: Cellular IC50 (μM) (EIF2a)
Protocol: Stable cell lines were created in HEK293 cells using lentiviral particles harboring an expression vector for GFP-eIF2α. Cells were selected using puromycin and enriched using fluorescence activated cell sorting against GFP. HEK293-EGFP-eIF2α cells were plated at 5000 cells/well in 384-well assay plates and incubated overnight at 37° C., 5% CO2. Inhibitor compounds were added to the wells by Echo acoustic dispensing and incubated for 30 minutes at 37° C., 5% CO2 prior to induction of ER stress by addition of tunicamycin to […] for 2 hours. Cells were lysed and TR-FRET was measured in an EnVision plate reader (PerkinElmer). FRET ratio data was normalized to signal from lysates treated with DMSO vehicle control and plotted as percent inhibition against 10-point; 3-fold dilution series of inhibitors. IC50 values were calculated using 4-parameter logistical fitting in XLFit.

Chain of PERK (Q9NZJ5 30-1116): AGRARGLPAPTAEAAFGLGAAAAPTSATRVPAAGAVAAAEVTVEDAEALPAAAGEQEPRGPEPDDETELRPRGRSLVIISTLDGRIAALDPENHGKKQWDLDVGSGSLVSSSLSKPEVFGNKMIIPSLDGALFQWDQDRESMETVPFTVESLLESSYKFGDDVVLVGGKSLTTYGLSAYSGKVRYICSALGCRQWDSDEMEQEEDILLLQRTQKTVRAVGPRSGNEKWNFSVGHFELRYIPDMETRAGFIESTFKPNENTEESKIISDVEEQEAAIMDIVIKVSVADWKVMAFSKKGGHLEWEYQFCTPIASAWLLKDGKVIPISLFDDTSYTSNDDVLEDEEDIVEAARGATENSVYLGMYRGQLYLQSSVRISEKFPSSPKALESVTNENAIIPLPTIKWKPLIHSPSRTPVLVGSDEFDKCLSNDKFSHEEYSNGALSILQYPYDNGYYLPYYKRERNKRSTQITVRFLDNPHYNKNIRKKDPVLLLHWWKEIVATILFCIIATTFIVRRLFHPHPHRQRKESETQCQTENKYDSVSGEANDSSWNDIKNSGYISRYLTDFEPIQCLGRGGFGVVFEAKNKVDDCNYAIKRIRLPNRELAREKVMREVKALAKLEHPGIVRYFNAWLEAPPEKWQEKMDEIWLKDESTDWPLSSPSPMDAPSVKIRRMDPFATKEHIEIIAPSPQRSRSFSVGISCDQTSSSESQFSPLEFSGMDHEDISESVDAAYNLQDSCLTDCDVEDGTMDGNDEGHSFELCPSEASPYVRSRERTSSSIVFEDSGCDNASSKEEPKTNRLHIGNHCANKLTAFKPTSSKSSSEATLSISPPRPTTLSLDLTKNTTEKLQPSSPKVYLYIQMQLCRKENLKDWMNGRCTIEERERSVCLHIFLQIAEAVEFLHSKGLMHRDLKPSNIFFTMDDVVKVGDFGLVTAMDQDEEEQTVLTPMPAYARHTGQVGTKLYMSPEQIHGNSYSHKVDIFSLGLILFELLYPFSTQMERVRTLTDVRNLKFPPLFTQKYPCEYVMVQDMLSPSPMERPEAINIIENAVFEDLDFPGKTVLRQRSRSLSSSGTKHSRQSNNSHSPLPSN

Row | SMILES | IC50 [µM]
1 | Cc1cccc(CC(=O)Nc2ccc(-c3cnc(N)c(C(=O)NC(C)C)c3)c(C)c2)c1 [Example 196, 2-amino-N-isopropyl-5-(2-methyl-4-(2-(m-tolyl)acetamido)phenyl)nicotinamide] | 0.251 to 0.5
2 | Nc1ncc(-c2ccc(NC(=O)C(O)c3cc(F)cc(F)c3)cc2Cl)nc1C(=O)NC1CC1 (stereo not drawn) [Example 167] | 0.101 to 0.25
3 | Cc1cc(NC(=O)C(O)c2ccccc2C)ccc1-c1cnc(N)c(C(=O)NC(C)C)c1 (stereo not drawn) [Example 64, 2-amino-5-(4-(2-hydroxy-2-(o-tolyl)acetamido)-2-methylphenyl)-N-isopropylnicotinamide] | 0.101 to 0.25
4 | Cc1ccccc1CC(=O)Nc1ccc(-c2cnc(N)c(C(=O)NC(C)C)c2)c(C)c1 [Example 195, 2-amino-N-isopropyl-5-(2-methyl-4-(2-(o-tolyl)acetamido)phenyl)nicotinamide] | 0.251 to 0.5
5 | Cc1cc(NC(=O)C(O)c2cccc(C(F)(F)F)c2)ccc1-c1cnc(N)c(C(=O)NC(C)C)c1 (stereo not drawn) [Example 71, 2-amino-5-(4-(2-hydroxy-2-(3-(trifluoromethyl)phenyl)acetamido)-2-methylphenyl)-N-isopropylnicotinamide] | 0.501 to 1
6 | Cc1ccccc1C(O)C(=O)Nc1ccc(-c2cnc(N)c(C(=O)NC(C)C)c2)c(Cl)c1 (stereo not drawn) [Example 91, 2-amino-5-(2-chloro-4-(2-hydroxy-2-(o-tolyl)acetamido)phenyl)-N-isopropylnicotinamide] | 0.251 to 0.5
7 | Cc1cc(NC(=O)C(O)c2cc(F)cc(F)c2)ccc1-c1cnc(N)c(C(=O)NC2COC2)n1 (stereo not drawn) [Example 143, 3-amino-6-(4-(2-(3,5-difluorophenyl)-2-hydroxyacetamido)-2-methylphenyl)-N-(oxetan-3-yl)pyrazine-2-carboxamide] | 0.026 to 0.05
8 | Cc1cc(NC(=O)C(O)c2cccc(C(F)(F)F)c2)ccc1-c1cnc(N)c(C(=O)NC(C)C)c1 (stereo not drawn) [Example 70, 2-amino-5-(4-(2-hydroxy-2-(3-(trifluoromethyl)phenyl)acetamido)-2-methylphenyl)-N-isopropylnicotinamide] | 0.001 to 0.025
9 | CCc1cc(NC(=O)C(O)c2ccccc2C)ccc1-c1cnc(N)c(C(=O)NC(C)C)c1 (single isomer, unassigned) [Example 104, 2-amino-5-(2-ethyl-4-(2-hydroxy-2-(o-tolyl)acetamido)phenyl)-N-isopropylnicotinamide] | 0.051 to 0.1
10 | Cc1cc(NC(=O)C(O)c2cc(F)cc(F)c2)ccc1-c1cnc(N)c(C(=O)NC2COC2)n1 (stereo not drawn) [Example 142, 3-amino-6-(4-(2-(3,5-difluorophenyl)-2-hydroxyacetamido)-2-methylphenyl)-N-(oxetan-3-yl)pyrazine-2-carboxamide] | 1 to 2
11 | Cc1cc(NC(=O)C(O)c2cc(F)cc(F)c2)ccc1-c1cnc(N)c(C(=O)NC2CCC2)n1 (stereo not drawn) [Example 141, 3-amino-N-cyclobutyl-6-(4-(2-(3,5-difluorophenyl)-2-hydroxyacetamido)-2-methylphenyl) pyrazine-2-carboxamide] | 0.101 to 0.25
12 | COCCNC(=O)c1cc(-c2ccc(NC(=O)C(O)c3cc(F)cc(F)c3)cc2C)cnc1N (stereo not drawn) [Example 55, 2-amino-5-(4-(2-(3,5-difluorophenyl)-2-hydroxyacetamido)-2-methylphenyl)-N-(2-methoxyethyl) nicotinamide] | 1 to 2
13 | Cc1cc(NC(=O)C(O)c2ccccc2C)ccc1-c1cnc(N)c(C(=O)NC(C)C)c1 (stereo not drawn) [Example 65, 2-amino-5-(4-(2-hydroxy-2-(o-tolyl)acetamido)-2-methylphenyl)-N-isopropylnicotinamide] | 2 to 3
14 | Nc1ncc(-c2ccc(NC(=O)C(O)c3cc(F)cc(F)c3)cc2Cl)nc1C(=O)NC1CC1 (stereo not drawn) [Example 166, 3-amino-6-(2-chloro-4-(2-(3,5-difluorophenyl)-2-hydroxyacetamido)phenyl)-N-cyclopropyl-pyrazine-2-carboxamide] | 0.026 to 0.05
15 | Cc1cc(NC(=O)C(O)c2cc(F)cc(F)c2)ccc1-c1cnc(N)c(C(=O)NC2CCOCC2)c1 (stereo not drawn) [Example 51, 2-amino-5-(4-(2-(3,5-difluorophenyl)-2-hydroxyacetamido)-2-methylphenyl)-N-(tetrahydro-2H-pyran-4-yl)nicotinamide] | 0.501 to 1
